Reference: patent publication US6590123B2, “Aminobenzoic acid derivatives having anti-tumorigenic activity, methods of making and using the same” (Mount Sinai School of Medicine of New York University, priority 1998, dated 2003)
≈ marks a conversion by molar mass, not a printed value. Where “and” joins values, the source holds several entries; their conditions need not be identical. Equal entries are not always repeated. Entries after “also recorded” stand apart in the source; their conditions may differ. Where two headings read alike, the source gives them in different places.

How the values were obtained:
[1] = tested on: CEM cells; test: DNA fragmentation by electrophoresis (apoptosis); format: cell-based, human; details: for apoptosis, DNA fragmentation on gel electrophoresis: 48 hours, compound 8 0.025 μg/ml, compound 9 0.005 μg/ml, fluorine compound 5.0 μg/ml, chlorine compound 0.75 μg/ml; for Apoptosis: 0.025 μg/ml, DNA electrophoresis
Experimental: DNA fragmentation was determined by a method reported previously (reference 3). Briefly, cells were treated in 1 ml lysis buffer (0.01M Tris. HCL pH 8.0, 0.01M NaCl, 0.01M EDTA pH 8.0 and 5% sodium dodecyl sulfate) containing 1 μg/ml protease K for 1 h at 50° C. The resulting products were extracted with phenol and chloroform:isoamylalcohol (24:1, v/v), and precipitated with ethanol followed by centrifugation at 7800 g (Sorvall RC-5B Du Pont, Newtown, Conn.). The ethanol was removed and the dry pellets of nucleic acid were resuspended in 10 mM Tris-HCL/1 mM EDTA solution. When DNA content was determined spectrophotometrically all samples had A260/A280 ratio≧2. The DNA samples were then treated with RNase (Sigma, St. Louis, Mo.) at a final concentration of 0.1 μg/μl for 20 min at 37° C. before gel loading. Approximately 4 μg size DNA aliquots were loaded onto horizontal agarose gel (1.5%) prepared with 1% ethidium bromide. Electrophoresis was performed at 75 volts for 2 h and the DNA patterns were visualized with UV light.
[…] After incubation, cells were washed twice in PBS. Cell pellets were resuspended in drug-free medium and incubated for 48 hr at 37° C. Cell viability, morphology, mitotic spindles, cell cycle distribution and apoptosis were determined 24 hr and 48 hr post pulse exposure.
Soluble DNA from cells was extracted by the method reported previously (14). Briefly, after washing with PBS, cells were treated in 1 ml lysis buffer (0.01 M Tris.HCL pH 8.0, 0.01 M NaCl, 0.01M EDTA pH 8.0 and 5% sodium dodecyl sulfate) containing 1 μg/ml proteinase K for 1 hr at 50° C. The resulting products were extracted with phenol and chloroform:isoamylalcohol (24:1, v/v), and precipitated with ethanol followed by centrifugation at 7800 g (Sorvall RC-5B Du Pont, Newtown, Conn.). The ethanol was removed and the dry pellet of nucleic acid was resuspended in 10 mM Tris-HCL/1 mM EDTA solution. DNA content was determined spectrophotometrically by measuring absorption at 260 nm (A260). All samples, had A260/A280≧2. The DNA samples were then treated with RNase (Sigma, St. Louis, Mo.) at a final concentration of 0.1 μg/l for 20 min at 37° C. before gel loading. The DNA sample (4 μg) was analyzed in 1.5% horizontal agarose gel prepared with 1% ethidium bromide. Electrophoresis was performed at 75 volts for 2 hours and the DNA migration was visualized under UV light.

[2] = tested on: CEM cells; test: Cell cycle analysis by flow cytometry; format: cell-based, human; details: for shift of the cell population from G0/G1 (2N) to G2/M (4N), DNA profile: 8 h treatment, compound 6 2.5 μg/ml, compound 8 0.025 μg/ml, compound 9 0.005 μg/ml; for Apoptosis (%) / G0/G1 (%) / G2/M (%) / S (%) / Mitotic Arrest: 0.025 μg/ml; for Mitotic Arrest: cell cycle analyses
[3] = tested on: CEM cells; test: Cytotoxicity, ID50 and ID90 by trypan blue staining; format: cell-based; details: for IC90 / IC50: Homo sapiens, CCRF-CEM; for IC90: 48 h, read-out: ID90 (the source's name); for IC50: NT = Non-toxic to CEM cells
Experimental: CEM cells, a human T-cell lymphoblastoid leukemia cell line (American Type Culture Collection, Rockville, Md.), were cultured in suspension (Iscove's Dulbecco's Medium) supplemented with 10% heat inactivated fetal bovine serum (FBS), penicillin (250 μ/ml) and streptomycin (250 μl/ml). Cells were incubated at 37° C. in 5% C02 and only those cells in exponential growth were used.
CEM cells were seeded into 96-well microplates (Falcon, Oxnard, Calif.) at 10^5 cell per well, then treated with 0-10 μg/ml of the candidate compounds for 48 h at 37° C. yielding a total volume of 250 μ/well. Cell viability was assessed by trypan blue staining. ID50 and ID90 were defined as the concentration killing 50% or 90% of the cells in comparison with untreated controls, and calculated by non-linear regression analysis.
Cells in suspension culture were seeded into 96-well microplates (Falcon, Oxnard, Calif.) at 10^5 cell per well, followed, by treatment with 0-10 μg/ml of the candidate compounds for 48 hr at 37° C. with total volume of 250 μl per well. Cell viability was assessed by trypan blue exclusion.
The ID50 and ID90 was determined in duplicate in every set of experiments, and each experiment was repeated 3 times under identical conditions. ID50 and ID90 were defined as drug concentrations that induced 50% or 90% cellular death in comparison with untreated controls and calculated by non-linear regression analysis. […]

[4] = CEM cells, concentration killing 90% of the cells
[5] = Continuous Exposure (24 hr; 48 hr in footnote)

With NC(=O)NC(=O)c1cccc(NC(=O)CCl)c1 [Compound 7, 3-Chloroacetoamido, benzoylurea] the “apoptosis, DNA fragmentation on gel electrophoresis” value (shortened to “apoptosis, DNA fragmentation”) [1] was “much less DNA fragmentation”, the “shift of the cell population from G0/G1 (2N) to G2/M (4N), DNA profile” value (“shift of the cell population from G0/G1” below) [2] was “slight increase” and the “fold increase of ID50 relative to 3-BAABU” value ([3]; CEM leukemic cells) was 40 fold. For the same molecule, the IC90 [3, 4] was 0.6 µg/mL and 2.3 µM and the IC50 ([3]; CEM leukemic cells, 48 hr) was 1950 nM.
In the case of NC(=O)NC(=O)c1cccc(NC(=O)CBr)c1 [Compound 8, 3-Bromoacetoamido, benzoylurea], the “apoptosis, DNA fragmentation” value [1] is reported as 180-200 bp multiple-unit ladder pattern, the Apoptosis [1, 5] is reported as “++++ (++++: >75% cells were affected)” and the Apoptosis ([1]; Pulse Exposure (1 hr)) is reported as “++++ (++++: >75% cells were affected)”. The “Apoptosis (%)” value ([2]; 1 hour of treatment) was 2%, the “G0/G1 (%)” value ([2]; 1 hour of treatment) was 48% and the “G2/M (%)” value ([2]; 1 hour of treatment) was 21%. The “S (%)” value ([2]; 1 hour of treatment) was 29%, the “Apoptosis (%)” value ([2]; 2 hours of treatment) was 1% and the “G0/G1 (%)” value ([2]; 2 hours of treatment) was 35%. For the same molecule, the “G2/M (%)” value ([2]; 2 hours of treatment) was 22%, the “S (%)” value ([2]; 2 hours of treatment) was 42% and the “Apoptosis (%)” value ([2]; 4 hours of treatment) was 4%. The “G0/G1 (%)” value ([2]; 4 hours of treatment) was 28%, the “G2/M (%)” value ([2]; 4 hours of treatment) was 29% and the “S (%)” value ([2]; 4 hours of treatment) was 39%. The “Apoptosis (%)” value ([2]; 8 hours of treatment) was 5%, the “G0/G1 (%)” value ([2]; 8 hours of treatment) was 16% and the “G2/M (%)” value ([2]; 8 hours of treatment) was 44%. For the same molecule, the “S (%)” value ([2]; 8 hours of treatment) was 35%, the “Apoptosis (%)” value ([2]; 12 hours of treatment) was 7% and the “G0/G1 (%)” value ([2]; 12 hours of treatment) was 4%. For the same molecule, the “G2/M (%)” value ([2]; 12 hours of treatment) was 60%, the “S (%)” value ([2]; 12 hours of treatment) was 29% and the “Apoptosis (%)” value ([2]; 24 hours of treatment) was 18%. For the same molecule, the “G0/G1 (%)” value ([2]; 24 hours of treatment) was 2%, the “G2/M (%)” value ([2]; 24 hours of treatment) was 70% and the “S (%)” value ([2]; 24 hours of treatment) was 10%. The “Apoptosis (%)” value ([2]; 48 hours of treatment) was 33%, the “G0/G1 (%)” value ([2]; 48 hours of treatment) was 1% and the “G2/M (%)” value ([2]; 48 hours of treatment) was 61%. For the same molecule, the “S (%)” value ([2]; 48 hours of treatment) was 5%, the “shift of the cell population from G0/G1” value [2] was “major shift” and the “Mitotic Arrest” value [2, 5] was “++++ (++++: >75% cells were affected)”. For the same molecule, the “Mitotic Arrest” value ([2]; Pulse Exposure (1 hr)) was “++++ (++++: >75% cells were affected)”, the IC90 [3, 4] was 0.025 µg/mL and 82 nM and the IC90 ([3]; CEM, Human T-cell Leukemia, 48 hr) was 0.02 ± 0.003 µg/mL (≈ 0.0666 µM). For the same molecule, the IC50 ([3]; CEM leukemic cells, 48 hr) was 40 nM and the “ID50 of non-malignant cells relative to leukemic and lymphoma cell lines (times)” value ([3]; non-malignant cells vs leukemia or lymphoma cell lines, listed as 3-BAABU) was 60-150 times.
For NC(=O)NC(=O)c1cccc(NC(=O)CI)c1 [Compound 9, 3-Iodoacetoamido, benzoylurea], the “apoptosis, DNA fragmentation” value [1] was 180-200 bp multiple-unit ladder pattern, the “shift of the cell population from G0/G1” value [2] was “most significant transformation; also recorded: major shift” and the “fold more toxic than the bromine compound 8” value ([3]; CEM cells, cytotoxicity) was 5 fold. The “fold more toxic than the chlorine compound 7” value ([3]; CEM cells, cytotoxicity) was 160 fold and the IC90 [3, 4] was 0.005 µg/mL and 14 nM.
